row,Compound,melting point
1,"COC(=O)c1ccc(Oc2ccc(NC(=O)Nc3ccc(Cl)c(C(F)(F)F)c3)cc2)cn1 [Entry 55, N-(4-chloro-3-(trifluoromethyl)phenyl)-N′-(4-(2-(methoxycarbonyl)-5-pyridyloxy)phenyl)urea]",228 to 230 °C
2,"CNC(=O)c1cc(Oc2ccc(NC(=O)Nc3ccc(Oc4ccnc(C(=O)NC)c4)cc3)cc2)ccn1 [Entry 103, bis(4-(2-(N-methylcarbamoyl)-4-pyridyloxy)phenyl)urea]",125 to 130 °C
